The values that follow come from PMC11171921, “NinaB and BCO Collaboratively Participate in the β-Carotene Catabolism in Crustaceans: A Case Study on Chinese Mitten Crab Eriocheir sinensis” (International Journal of Molecular Sciences, 2024).

Structures are written as SMILES.

The target in the test is T1, EsNinaBl (Eriocheir sinensis, UniProt Z9UJ24V2T0).
T1 construct: full ORF in pGEX-4T (GST fusion vector), expressed in beta-carotene-producing E. coli BL(DE3) with pAC-BETAipi; primer-encoded N-terminus MSTDEGG, C-terminus FIPAEAQ
T1 sequence (Z9UJ24V2T0 1-523): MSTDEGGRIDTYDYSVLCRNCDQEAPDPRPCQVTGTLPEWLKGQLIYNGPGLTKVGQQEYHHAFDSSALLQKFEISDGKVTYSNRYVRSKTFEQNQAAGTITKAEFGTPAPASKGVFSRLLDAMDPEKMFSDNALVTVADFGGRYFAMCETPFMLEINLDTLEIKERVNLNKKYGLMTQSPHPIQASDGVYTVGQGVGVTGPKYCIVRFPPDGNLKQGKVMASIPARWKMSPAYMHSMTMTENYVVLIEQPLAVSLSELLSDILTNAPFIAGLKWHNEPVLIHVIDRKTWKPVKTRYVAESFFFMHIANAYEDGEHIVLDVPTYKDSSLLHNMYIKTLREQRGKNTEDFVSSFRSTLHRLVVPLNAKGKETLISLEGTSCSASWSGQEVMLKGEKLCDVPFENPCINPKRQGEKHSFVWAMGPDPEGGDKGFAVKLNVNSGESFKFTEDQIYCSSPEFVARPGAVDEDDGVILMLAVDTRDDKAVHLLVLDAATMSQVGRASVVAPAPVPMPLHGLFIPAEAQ
The experiment in a line: beta-carotene degradation and decolorization in beta-carotene-accumulating E. coli. It is filed as cell-based. The conditions noted are these: co-expression with pAC-BETAipi; […] IPTG induction; GST-fusion vector; products not identified.

Consider `CC1=C(/C=C/C(C)=C/C=C/C(C)=C/C=C/C=C(C)/C=C/C=C(C)/C=C/C2=C(C)CCCC2(C)C)C(C)(C)CCC1` [β-carotene], for which the “beta-carotene degradation and decolorization in beta-carotene-accumulating E. co” value is recorded as “evident decolorization was observed in the β-carotene-accumulated bacteria expressing EsNinaBl”.
